Biological target: hQC (Homo sapiens, UniProt Q16769)
Test: QC inhibitor assay (hQC inhibition, Ki and IC50)
Assay type: biochemical
Experimental: All measurements were performed with a BioAssay Reader HTS-7000Plus for microplates (Perkin Elmer) at 30° C. QC activity was evaluated fluorometrically using H-Gln-βNA. The samples consisted of 0.2 mM fluorogenic substrate, 0.25 U pyroglutamyl aminopeptidase (Unizyme, Hørsholm, Denmark) in 0.2 M Tris/HCl, pH 8.0 containing 20 mM EDTA and an appropriately diluted aliquot of QC in a final volume of 250 μl. Excitation/emission wavelengths were 320/410 nm. The assay reactions were initiated by addition of glutaminyl cyclase. QC activity was determined from a standard curve of β-naphthylamine under assay conditions. One unit is defined as the amount of QC catalyzing the formation of 1 μmol pGlu-βNA from H-Gln-βNA per minute under the described conditions.
In a second fluorometric assay, QC was activity determined using H-Gln-AMC as substrate. Reactions were carried out at 30° C. utilizing the NOVOStar reader for microplates (BMG labtechnologies). The samples consisted of varying concentrations of the fluorogenic substrate, 0.1 U pyroglutamyl aminopeptidase (Qiagen) in 0.05 M Tris/HCl, pH 8.0 containing 5 mM EDTA and an appropriately diluted aliquot of QC in a final volume of 250 μl. Excitation/emission wavelengths were 380/460 nm. The assay reactions were initiated by addition of glutaminyl cyclase. QC activity was determined from a standard curve of 7-amino-4-methylcoumarin under assay conditions. The kinetic data were evaluated using GraFit sofware.
This novel assay was used to determine the kinetic parameters for most of the QC substrates. QC activity was analyzed spectrophotometrically using a continuous method, that was derived by adapting a previous discontinuous assay (Bateman, R. C. J. 1989 J Neurosci Methods 30, 23-28) utilizing glutamate dehydrogenase as auxiliary enzyme. Samples consisted of the respective QC substrate, 0.3 mM NADH, 14 mM α-Ketoglutaric acid and 30 U/ml glutamate dehydrogenase in a final volume of 250 μl. Reactions were started by addition of QC and persued by monitoring of the decrease in absorbance at 340 nm for 8-15 min.
The initial velocities were evaluated and the enzymatic activity was determined from a standard curve of ammonia under assay conditions. All samples were measured at 30° C., using either the SPECTRAFIuor Plus or the Sunrise (both from TECAN) reader for microplates. Kinetic data was evaluated using GraFit software.
For inhibitor testing, the sample composition was the same as described above, except of the putative inhibitory compound added. For a rapid test of QC-inhibition, samples contained 4 mM of the respective inhibitor and a substrate concentration at 1 KM. For detailed investigations of the inhibition and determination of Ki-values, influence of the inhibitor on the auxiliary enzymes was investigated first. In every case, there was no influence on either enzyme detected, thus enabling the reliable determination of the QC inhibition. The inhibitory constant was evaluated by fitting the set of progress curves to the general equation for competitive inhibition using GraFit software.

Chain of hQC (Q16769 29-361): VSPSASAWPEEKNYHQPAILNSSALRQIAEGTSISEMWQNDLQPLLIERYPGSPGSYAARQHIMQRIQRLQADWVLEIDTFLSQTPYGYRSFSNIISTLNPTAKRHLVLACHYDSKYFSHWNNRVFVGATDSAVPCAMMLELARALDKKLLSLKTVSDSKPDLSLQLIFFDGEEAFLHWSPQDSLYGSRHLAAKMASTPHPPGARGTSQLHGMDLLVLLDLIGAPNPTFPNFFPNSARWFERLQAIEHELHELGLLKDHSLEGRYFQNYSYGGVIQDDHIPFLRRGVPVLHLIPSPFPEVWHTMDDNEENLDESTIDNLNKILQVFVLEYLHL

SMILES | IC50 [nM] | Ki [nM]
COC1=C(C)[C@H](c2cccc(F)c2F)N(c2ccc3nc[nH]c3c2)C1=O (single isomer, unassigned) [Example 9] | 18.7 | 4.7
COC1=C(C)[C@@H](c2cccc(F)c2F)N(c2ccc3nc[nH]c3c2)C1=O (single isomer, unassigned) [Example 10] | 169 | 32.3
COC1=C(c2ccccc2)C(c2cc(F)cc(F)c2F)N(c2ccc3[nH]cnc3c2)C1=O (stereo not drawn) [Example 5, 1-(1H-Benzo[d]imidazol-5-yl)-5-(2,3,5-trifluorophenyl)-3-methoxy-4-phenyl-1H-pyrrol-2(5H)-one] | 317 | 54.9
COC1=C(C)C(c2cccc(F)c2F)N(c2ccc3nc[nH]c3c2)C1=O (stereo not drawn) [Example 8, 1-(1H-Benzo[d]imidazol-6-yl)-5-(2,3-difluorophenyl)-3-methoxy-4-methyl-1H-pyrrol-2(5H)-one] | 117 | 20.9
COC1=C(C)C(c2cccc(Cl)c2Cl)N(c2ccc3[nH]cnc3c2)C1=O (stereo not drawn) [Example 17, 1-(1H-Benzo[d]imidazol-6-yl)-5-(2,3-dichlorophenyl)-3-methoxy-4-methyl-1H-pyrrol-2(5H)-one] | 557 | 46.6
COC1=C(C)C(c2ccc(C3CCCCC3)cc2)N(c2ccc3nc[nH]c3c2)C1=O (stereo not drawn) [Example 25, 1-(1H-Benzo[d]imidazol-6-yl)-5-(4-cyclohexylphenyl)-3-methoxy-4-methyl-1H-pyrrol-2(5H)-one] | 195 | 45.3
COC1=C(C)C(c2ccc(C3CCC(F)(F)CC3)cc2)N(c2ccc3nc[nH]c3c2)C1=O (stereo not drawn) [Example 26, 1-(1H-Benzo[d]imidazol-6-yl)-5-(4-(4,4-difluorocyclohexyl)phenyl)-3-methoxy-4-methyl-1H-pyrrol-2(5H)-one] | 292 | 36.2
COC1=C(C)C(c2ccc(C3CCC(N4CCOCC4)CC3)cc2)N(c2ccc3nc[nH]c3c2)C1=O (stereo not drawn) [Example 29, 1-(1H-Benzo[d]imidazol-6-yl)-3-methoxy-4-methyl-5-(4-(4-morpholinocyclo-hexyl)phenyl)-1H-pyrrol-2(5H)-one] | 221 | 18.7
COC1=C(C)C(C2CCC(c3ccccc3)CC2)N(c2ccc3nc[nH]c3c2)C1=O (stereo not drawn) [Example 32, 1-(1H-Benzo[d]imidazol-6-yl)-3-methoxy-4-methyl-5-(4-phenylcyclohexyl)-1H-pyrrol-2(5H)-one] | 821 | 164

From patent publication US8269019B2, “Inhibitors” (Probiodrug AG, priority 2010, dated 2012)
